Values quoted from earlier work, collected in patent US20210379059A1, “COMBINATION OF SUBSTANCES FOR REGENERATIVE THERAPY IN PATIENTS WITH TYPE 1 DIABETES MELLITUS” (Levicure Ltd., priority 2018, published 2021).
Where two headings read alike, the source gives them in different places.

What was measured:
β-cells [1] = conditions: mouse cell cultures
β-cells [2] = conditions: human cell cultures
[3] = tested on: adult patients with type 1 diabetes; conditions: 8 weeks, despite a reduction of total and lunch dose of insulin

| Structure (SMILES) | regeneration of β-cells (β-cells [1]) | regeneration of β-cells (β-cells [2]) | blood glucose levels [3] |
| --- | --- | --- | --- |
| NCCCC(=O)O [GABA, gamma-aminobutyric acid] | provide the regeneration of β-cells | provide the regeneration of β-cells | – |
| N[C@@H](CC(=O)N1CCn2c(nnc2C(F)(F)F)C1)Cc1cc(F)c(F)cc1F [Sitagliptin] | – | – | significantly reduced |
